One assay concerns GMP. The assay can be described thus: Culture of sorted GMP for 72 h, morphology and Mac-1/F4/80 flow cytometry. The assay is classed as cell-based, mouse. As to the method:
FIGS. 5A-C—TLR stimulation drives differentiation of GMP into F4/80^hi monocytes/macrophages. (FIG. 5A) These photomicrographs were prepared with Giemsa-May-Grünwald stained cytocentrifuged slides. ([…]) Sorted GMP were stimulated with LPS (1 μg/ml), Pam3CSK4 (100 ng/ml), M-CSF, or GM-CSF. After 72 h in culture, cells were analyzed by flow cytometry for expression of F4/80 and Mac-1. Percentages indicate the frequencies of Mac-1^lo F4/80^lo or Mac-1^hi F4/80^hi cells. CD86, Gr-1, or CD62L were analyzed by flow cytometry on Mac-1^hi F4/80^hi cells. Open histograms depict staining with the appropriate isotype matched Abs. The results are representative of those obtained in two independent experiments. (FIG. 5C) The bar graphs depict cell yields of Mac-1^lo F4/80^lo or Mac-1^hi F4/80^hi cells. The data represent mean values with standard deviations from triplicate cultures and are representative of three independent experiments.
Serum-free, stromal cell-free cell cultures. Round-bottomed 96-well plates or flat-bottomed 24-well plates (Corning Inc.) were used for these cultures. […]
Cell morphology. Cytospins of cultured progenitor cells were stained with Giemsa-May-Grünwald (Sigma Diagnostics, St. Louis, Mo.), mounted in Immersol (Zeiss, Thornwood, N.Y.), and analyzed on a Zeiss Axioplan 2i microscope with a 100×/1.4 NA Plan Achromat objective. […]
For orientation: A flow cytometer gives signals particle by particle.

In a further assay the test system is CLP. Put plainly: Serum-free, stromal cell-free culture of CLP with SCF, FL and IL-7, CD19/Mac-1 flow cytometry. The assay is classed as cell-based, mouse. As for the experimental part:
FIGS. 6A-D—TLR stimulation allows lymphoid biased progenitors to produce myeloid dendritic cells at the expense of B lymphopoiesis. (FIG. 6A) Sorted CLP (5,000/well) from C57BL/6 or MyD88^−/− mice were stimulated in X-VIVO15 with medium alone, LPS (10 μg/ml) or Pam3CSK4 (100 ng/ml) plus SCF, FL and IL-7. After 7 days in culture, cells were analyzed by flow cytometry for expression of CD19and Mac-1 (left). The bar graphs depict cell yields for CD19^+ cells or Mac-1^+ cells (right) and the data represent mean values with standard deviations from triplicate cultures (*P<0.02). The results are representative of those obtained in five independent experiments. (FIG. 6B) Subsets of the recovered cells described in FIG. 6A were sorted and used to prepare Giemsa stained slides. (FIG. 6C) Cultured cells from C57BL/6 mice were also analyzed by flow cytometry for expression of Gr-1 and CD11c. (FIG. 6D) Sorted CLP from C57BL/6 mice were cultured in the presence of SCF, FL and IL-7 with a range of concentrations of LPS or combination of recombinant mouse CD14-Fc protein (1 μg/ml) plus LPS. After 7 days in culture, cells were analyzed by flow cytometry for expression of CD19 and Mac-1 (left). The bar graph depicts cell yields for CD19^+ cells or Mac-1^+ cells (right). Data represent mean values with standard deviations from triplicate cultures (*P<0.003). […]

In the case of Pam3CSK4, the “CD11b/Mac-1 expression of cells produced from GMP” value with GMP is given as “Virtually all cells produced in response to LPS or Pam3CSK4 were CD11b/Mac-1^+”. Moreover, in the assay on GMP (GMP, Giemsa-May-Grünwald), the “Morphology of recovered cells” value is listed as “less homogeneous in appearance”. For the same substance, the “Phenotype (CD11c, Gr-1) of cells produced from CLP” value in the assay with CLP (7 days) is recorded as “Gr-1^− but less homogenous”. Also, in the assay with CLP (with SCF, FL and IL-7, 7 days), the “Cell types emerging from CLP (CD19+ vs Mac-1+)” value is “a mixture of the two cell types”.

The values above are taken from patent US7592003B2, “Regulation of toll-like receptors on stem cells” (Oklahoma Medical Research Foundation, priority 2005, dated 2009).
